What is called IC50 is the concentration at which inhibition is half-maximal.

Results on one compound are retold here after publication PMC3433414, “Oral Administration of the Pimelic Diphenylamide HDAC Inhibitor HDACi 4b Is Unsuitable for Chronic Inhibition of HDAC Activity in the CNS In Vivo” (PLoS ONE, 2012).

What all share (assay type): biochemical
In one experiment the target is T1, HDAC3-NcoR2 (Homo sapiens, UniProt O15379).
T1 construct: purified recombinant human full length HDAC1 (cat# 50051), HDAC2 (cat# 50052), HDAC3-NcoR2 (cat# 50003); purchased BPS Bioscience (San Diego, CA) 50003
T1 sequence (O15379 whole entry): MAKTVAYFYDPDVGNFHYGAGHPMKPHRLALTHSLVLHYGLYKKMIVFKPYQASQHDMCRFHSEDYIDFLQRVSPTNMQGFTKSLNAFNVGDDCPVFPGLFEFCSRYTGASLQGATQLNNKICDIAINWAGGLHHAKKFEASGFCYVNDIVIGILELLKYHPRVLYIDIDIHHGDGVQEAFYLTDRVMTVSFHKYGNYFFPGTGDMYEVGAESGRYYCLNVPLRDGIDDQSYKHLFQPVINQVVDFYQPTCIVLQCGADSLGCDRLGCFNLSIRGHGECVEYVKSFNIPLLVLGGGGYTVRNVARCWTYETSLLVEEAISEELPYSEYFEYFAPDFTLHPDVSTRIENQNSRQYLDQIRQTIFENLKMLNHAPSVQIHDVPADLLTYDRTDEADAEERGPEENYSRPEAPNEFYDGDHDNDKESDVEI
T1 sequence (Q9Y618 395-489 partner limits assumed): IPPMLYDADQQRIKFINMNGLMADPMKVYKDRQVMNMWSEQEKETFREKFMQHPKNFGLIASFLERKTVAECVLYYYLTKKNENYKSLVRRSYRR
Description: Two-step fluorogenic deacetylase assay, recombinant HDAC3. The method, then:
As described, the length of compound-enzyme incubation has been reported to be critical for this class of HDAC inhibitors, where a unique time-dependent increase in affinity and subsequent potency has been observed [36]–[38]. […] To better mimic physiological conditions, our experiments were performed at 37°C as opposed to room temperature as reported in previous studies. […] To confirm that this shift was independent of the time of 4b in aqueous solution, 4b was applied immediately to the enzyme-substrate mix both after preparing in aqueous buffer, and 120 min after preparation.
To assess the biochemical and cellular potency of 4b and its conversion products/metabolites, we utilized the two-step fluorogenic assay which measures the HDAC-mediated catalytic conversion of synthetic acetylated lysine substrates. In brief, on deacetylation of the substrates by HDAC activity, a protease site is unmasked which allows subsequent trypsin-mediated cleavage and release of the highly flourescent AMC molecules in a subsequent step of the assay. The substrates used were Lys_Ac_AMC (Bachem I-1875) for HDAC3 and (Ac)Arg-Gly-Lys(Ac) (Bachem I-1925) for HDAC1 and HDAC2. The final substrates used for each enzyme assessment were carefully selected after assessing the catalytic turnover of each of these substrates against HDAC1, HDAC2 and HDAC3 respectively, and selecting the ones that performed best. To assess Class IIa enzyme activity (HDAC4, 5, 7, 9) and Class I HDAC8 activity, we used the alternative substrate Boc_Lys_TFA (Bachem I-1985), equivalent to substrate 4 of [42]. Class IIa HDACs have approximately 1000-fold less catalytic activity than Class 1 enzymes, and show only extremely low turnover of acetylated substrates due to a Tyr to His mutation in the active site. However, the relatively labile and sterically more demanding trifluoracetyl group is readily hydrolyzed by the catalytically less avid Class IIa enzymes, allowing measurement of Class IIa activity using the 2-step fluorogenic assay. Intriguingly the Boc_Lys_TFA substrate seems to show almost total selectivity for Class IIa enzymes over class I and Class IIb enzymes, with the exception of HDAC8 ([42], and internal data).
For evaluation of the class selectivity of the compounds, we assessed inhibition against purified recombinant human full length HDAC1 (cat# 50051), HDAC2 (cat# 50052), HDAC3-NcoR2 (cat# 50003) and HDAC8 (cat# 50008): as representative of Class I activity; catalytic domain HDAC4(αα 648–1057), HDAC5 (αα 657–1123; cat # 50005), HDAC7 (αα 518-end; cat # 50007) and HDAC9 (αα 604–1066; cat # 50009) activity: representing all Class IIa activity; and full length HDAC6 (cat#50006): representing Class IIb activity. With the exception of purified catalytic domain HDAC4, which was prepared for us by Emerald Biosciences (Seattle, WA), all HDAC enzymes were purchased from BPS Bioscience (San Diego, CA).
Unless otherwise stated in the text, assays were run in the following format in 384-well plates using automated liquid handling procedures. Briefly, frozen enzyme stock and compounds were diluted in assay buffer (50 mM Tris-HCl, 137 mM NaCl, 2.7 mM KCl, 1 mM MgCl2 at pH 8.0) and added to plates at concentrations sufficient to achieve a 16-point concentration-response curve from 50 µM to 1 nM at 1% DMSO final concentration, after addition of all reagents. Substrate diluted in assay buffer was then added and plates were incubated after brief shaking for 60 min at 37°C. Following incubation, a developer/stop-step was introduced to terminate the reaction and cleave the fluorescent substrate: either the addition of trypsin with 10 µM Compound 26 [44] for the Class IIa enzymes, or trypsin with 5 µM Trichostatin A (TSA) for the Class I/IIb enzymes. Plates were briefly shaken and then returned to the incubator for a further 60 min, followed by measurement of fluorescence per well (Ex 355 nm, Em 460 nm) on a Perkin Elmer EnVision. […]

Another experiment deals with T2, catalytic domain HDAC4 (Homo sapiens, UniProt P56524).
T2 construct: catalytic domain HDAC4(αα 648–1057); purchased Emerald Biosciences (Seattle, WA)
T2 sequence (P56524 648-1057): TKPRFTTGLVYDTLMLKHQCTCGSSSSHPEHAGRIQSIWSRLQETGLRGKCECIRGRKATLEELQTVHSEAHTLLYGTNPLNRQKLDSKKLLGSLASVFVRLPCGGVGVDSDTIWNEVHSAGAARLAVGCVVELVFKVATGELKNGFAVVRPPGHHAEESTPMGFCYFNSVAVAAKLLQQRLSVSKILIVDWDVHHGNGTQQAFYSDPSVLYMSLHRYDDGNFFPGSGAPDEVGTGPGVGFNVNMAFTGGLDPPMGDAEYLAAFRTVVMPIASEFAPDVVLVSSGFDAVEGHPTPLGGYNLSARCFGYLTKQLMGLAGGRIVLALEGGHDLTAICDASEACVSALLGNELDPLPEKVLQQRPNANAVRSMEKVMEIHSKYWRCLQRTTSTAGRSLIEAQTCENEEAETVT
Description: Two-step fluorogenic deacetylase assay, recombinant HDAC4. The settings on record: up to 50 µM. From the text:
(§1) To assess the biochemical and cellular potency of 4b and its conversion products/metabolites, we utilized the two-step fluorogenic assay which measures the HDAC-mediated catalytic conversion of synthetic acetylated lysine substrates. In brief, on deacetylation of the substrates by HDAC activity, a protease site is unmasked which allows subsequent trypsin-mediated cleavage and release of the highly flourescent AMC molecules in a subsequent step of the assay. The substrates used were Lys_Ac_AMC (Bachem I-1875) for HDAC3 and (Ac)Arg-Gly-Lys(Ac) (Bachem I-1925) for HDAC1 and HDAC2. […] However, the relatively labile and sterically more demanding trifluoracetyl group is readily hydrolyzed by the catalytically less avid Class IIa enzymes, allowing measurement of Class IIa activity using the 2-step fluorogenic assay. […]
(§2) For evaluation of the class selectivity of the compounds, we assessed inhibition against purified recombinant human full length HDAC1 (cat# 50051), HDAC2 (cat# 50052), HDAC3-NcoR2 (cat# 50003) and HDAC8 (cat# 50008): as representative of Class I activity; catalytic domain HDAC4(αα 648–1057), HDAC5 (αα 657–1123; cat # 50005), HDAC7 (αα 518-end; cat # 50007) and HDAC9 (αα 604–1066; cat # 50009) activity: representing all Class IIa activity; and full length HDAC6 (cat#50006): representing Class IIb activity. […]

In a further experiment the target is T3, HDAC9 (Homo sapiens, UniProt Q9UKV0).
T3 construct: HDAC9 (αα 604–1066; cat # 50009); purchased BPS Bioscience (San Diego, CA) 50009
T3 sequence (Q9UKV0 604-1066 isoform Q9UKV0-5): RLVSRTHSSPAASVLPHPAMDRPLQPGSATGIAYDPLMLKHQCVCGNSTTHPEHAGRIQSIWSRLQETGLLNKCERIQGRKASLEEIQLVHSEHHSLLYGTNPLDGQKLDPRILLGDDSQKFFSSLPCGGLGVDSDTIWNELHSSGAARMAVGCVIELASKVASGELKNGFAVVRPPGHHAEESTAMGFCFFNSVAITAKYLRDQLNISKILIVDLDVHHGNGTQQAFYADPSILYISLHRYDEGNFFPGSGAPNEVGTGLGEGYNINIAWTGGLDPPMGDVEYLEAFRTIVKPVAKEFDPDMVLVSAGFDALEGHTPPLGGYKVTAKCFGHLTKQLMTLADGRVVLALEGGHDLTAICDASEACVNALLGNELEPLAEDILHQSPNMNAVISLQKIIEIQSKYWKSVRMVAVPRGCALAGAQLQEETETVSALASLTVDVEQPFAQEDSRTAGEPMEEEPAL
Description: Two-step fluorogenic deacetylase assay, recombinant HDAC9. The note with it: up to 50 µM.
Text: as §1, §2

Each structure is given as a SMILES string.

Regarding `Nc1ccccc1NC(=O)CCCCCC(=O)Nc1ccccc1` [Compound 4b], the “selectivity for HDAC3 over HDAC2” value on HDAC3-NcoR2 was roughly 9 fold. The IC50 on HDAC3-NcoR2 (0 min pre-incubation with enzyme, then 60 min substrate, 37°C) was 650 nM; at HDAC3-NcoR2 (2 h pre-incubation with enzyme (3 h incubation in total), 37°C) it was 80 nM; at HDAC3-NcoR2 (no enzyme pre-incubation, applied 120 min after preparation in aqueous buffer) it was 650 nM; at HDAC3-NcoR2 (no enzyme pre-incubation, applied immediately after preparing in aqueous buffer), 970 nM; on HDAC3-NcoR2 (standard screening format, free base, DMSO stock) it was 254 nM. Further, the “selectivity within the Class I enzymes for HDAC3” value at HDAC3-NcoR2 (standard screening format) was roughly 6 fold. Further, the “activity against HDAC4” value at catalytic domain HDAC4 is “No activity”. Further, the “activity against HDAC9” value on HDAC9 is “No activity”.
